From patent US6413974B1, “6,9,-disubstituted 2-[trans-(4-aminocyclohexyl) amino] purines” (Aventis Pharmaceuticals Inc., priority 1998, dated 2002) come the findings set out here.

One experiment concerns Colo-205. The experiment is described as follows: In vitro tumor cell proliferation, Colo-205. The note with it: read-out: In vitro Tumor Cell Proliferation (IC50, μM) Colon Colo-205. It counts as cell-based, human. Summed up:
(§1)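 Viable (trypan blue-excluding) cells plated and left overnight at 37° C, then exposed to drug for 3 days, refed with fresh drug-containing medium for 4 more days. TCA-fixed cells stained with 0.4% sulforhodamine B; alternatively, CyQUANT read after 3 days of drug and freezing at −80° C.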

A further experiment concerns DU 145. Briefly: In vitro tumor cell proliferation, DU 145. The experiment is classed as cell-based, human. The following applies: read-out: In vitro Tumor Cell Proliferation (IC50, μM) Prostate DUI45. The essentials:
as §1

The next experiment relates to A549. The experiment is described as follows: In vitro tumor cell proliferation, A549. It counts as cell-based, human. The following applies: read-out: In vitro Tumor Cell Proliferation (IC50, μM) Lung A549. Summed up: as §1
Another experiment concerns the target T1, cdk2/cyclin E (Homo sapiens, UniProt P24941).
T1 construct: made in house; host or cells: insect cells (baculovirus co-infection)
Briefly: Cyclin-Dependent Kinase 2 Assay (cdk-2 inhibition). The experiment is classed as biochemical. The following applies: GST-Rb substrate, 30 min at 30° C. Summed up:
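GST-Rb bound to glutathione-Sepharose beads (0.5 μg/well) as substrate in 50 mM HEPES pH 7.5, 10 mM MgCl2, 1 mM EGTA. Recombinant cdk2/cyclin E at 0.1 μg per 100 μl, 30 min at 30 °C. Reaction stopped by filtration, TNEN washes, scintillation counting.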

In another experiment the target is T2, cdk4/cyclin D1 (Homo sapiens, UniProt P11802).
T2 construct: made in house; host or cells: Sf9 insect cells (Bac-to-Bac baculovirus, pFastBac)
Briefly: Cyclin-dependent kinase 4 Assay. The experiment is classed as biochemical. The following applies: cdk4/cyclin D1, GST-Rb substrate, 10 μM ATP, 30 min at 37° C.; read-out: CDK4 Inhibition IC50. The essentials:
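Insect-cell lysate of coexpressed human cdk4/cyclin D1 (0.1 μg) phosphorylated bead-bound GST-Rb (0.5 μg) in 50 mM HEPES pH 7.5, 10 mM MgCl2, 1 mM EGTA for 30 min at 37 °C. Filters were washed with TNEN and scintillation-counted; IC50 values derived.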

For the next experiment, the system named is HT-29. Briefly: In vitro tumor cell proliferation, HT-29. The note with it: read-out: In vitro Tumor Cell Proliferation (IC50, μM) Colon HT-29 (converted). It counts as cell-based, human. Summed up: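 HT-29 human colon adenocarcinoma cells plated overnight at 37° C., then exposed to drug for 3 days, medium with fresh drug replaced for a further 4 days. Cells fixed with 10% TCA and stained with 0.4% sulforhodamine B; alternatively, CyQUANT read after 3 days of drug exposure.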

Another experiment concerns MDA-MB-231. Briefly: In vitro tumor cell proliferation, MDA-MB-231. It counts as cell-based, human. The following applies: read-out: In vitro Tumor Cell Proliferation (IC50, μM) Breast MDA-MB-231. The essentials: as §1
The test system of a further experiment is DMS-114. Briefly: In vitro tumor cell proliferation, DMS-114. The experiment is classed as cell-based, human. The following applies: read-out: In vitro Tumor Cell Proliferation (IC50, μM) Lung DMS-114. Summed up:
as §1

For the next experiment, the system named is MDA-MB-435. The experiment is described as follows: In vitro tumor cell proliferation, MDA-MB-435. It counts as cell-based, human. The following applies: read-out: In vitro Tumor Cell Proliferation (IC50, μM) Breast MDA-MB-435. Summed up:
as §1

The subject of a further experiment is PC-3. The experiment is described as follows: In vitro tumor cell proliferation, PC-3. It counts as cell-based, human. The following applies: read-out: In vitro Tumor Cell Proliferation (IC50, μM) Prostate PC-3. Summed up: as §1
Setting [1] is: Homo sapiens, COLO 205, values marked * (mark not explained).
The mark [2] stands for this setting: values marked * (mark not explained), dihydrochloride.
Setting [3] is: Homo sapiens, DU-145, values marked * (mark not explained).
Setting [4] is: Homo sapiens, A549, values marked * (mark not explained).
The mark [5] stands for this setting: Homo sapiens, HT-29, values marked * (mark not explained).
Where [6] appears, read: Homo sapiens, MDA-MB-231, values marked * (mark not explained).
Setting [7] is: Homo sapiens, DMS-114, values marked * (mark not explained).
Where [8] appears, read: Homo sapiens, MDA-MB-435, values marked * (mark not explained).
[9] abbreviates: Homo sapiens, PC-3, values marked * (mark not explained).

Molecules are shown by their SMILES. Several values for one entry are separate records, joined by “and”; a condition that tells them apart may be missing. Equal entries are not always repeated. Structures can show the parent of a compound that is named as a salt. Where two headings read alike, the source gives them in different places. Where only a bound is given, the exact number is not on record here.

T2 sequence (P11802 whole entry): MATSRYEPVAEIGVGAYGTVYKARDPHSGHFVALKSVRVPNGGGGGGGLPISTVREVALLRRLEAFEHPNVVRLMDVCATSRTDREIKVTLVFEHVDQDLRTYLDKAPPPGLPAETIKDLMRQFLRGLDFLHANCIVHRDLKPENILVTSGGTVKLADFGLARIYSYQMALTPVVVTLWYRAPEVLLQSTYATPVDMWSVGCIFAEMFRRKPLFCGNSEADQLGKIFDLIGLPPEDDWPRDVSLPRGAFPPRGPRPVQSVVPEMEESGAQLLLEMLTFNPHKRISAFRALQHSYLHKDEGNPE
T2 sequence (P24385 whole entry partner): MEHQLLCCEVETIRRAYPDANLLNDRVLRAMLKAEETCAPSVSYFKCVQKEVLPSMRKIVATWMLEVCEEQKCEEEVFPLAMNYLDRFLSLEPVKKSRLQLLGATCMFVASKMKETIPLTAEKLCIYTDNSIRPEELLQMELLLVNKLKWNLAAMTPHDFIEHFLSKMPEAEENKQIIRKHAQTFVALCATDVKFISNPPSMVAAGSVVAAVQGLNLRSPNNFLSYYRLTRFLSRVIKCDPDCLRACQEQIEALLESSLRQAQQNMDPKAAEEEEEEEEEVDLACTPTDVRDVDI

`N[C@H]1CC[C@H](Nc2nc(NCc3ccncc3)c3ncn(C4CCCC4)c3n2)CC1` [Example 8, 2-[Trans-(4-aminocyclohexyl)amino]-6-[(4-pyridyl)methylamino]-9-cyclopentylpurine dihydrochloride]: the IC50 in the experiment on Colo-205 (setting [1]) was found to be 4.6 µM; in the experiment on Colo-205 (setting [2]), 4.1 µM; in the experiment with DU 145 (setting [3]), 5.8 µM; in the experiment with DU 145 (setting [2]), 6.5 µM; with A549 (setting [4]), 7.7 µM; in the experiment on A549 (setting [2]), 5.9 µM. Moreover, the IC50 is 110 nM at cdk2/cyclin E; 700 nM and 800 nM at cdk4/cyclin D1; 7.6 µM in the experiment on HT-29 (setting [5]); 11 µM in the experiment on HT-29 (setting [2]); 5.3 µM in the experiment on MDA-MB-231 (setting [6]); 8.1 µM in the experiment with MDA-MB-231 (setting [2]). In addition, the IC50 is 9.9 µM in the experiment on DMS-114 (setting [7]); 7.4 µM in the experiment on DMS-114 (setting [2]); 10 µM with MDA-MB-435 (setting [8]); 4.6 µM in the experiment on PC-3 (setting [9]); 5.4 µM with PC-3 (setting [2]).

On to `N[C@H]1CC[C@H](Nc2nc(NCc3cccs3)c3ncn(C4CCCC4)c3n2)CC1` [Example 17, 2-[Trans-(4-aminocyclohexyl)amino]-6-(2-thiophenemethylamino)-9-cyclopentylpurine dihydrochloride], for which the IC50 was 2.2 µM with Colo-205 (setting [1]); 3 µM in the experiment on Colo-205 (setting [2]); 1.6 µM with DU 145 (setting [3]); 1.8 µM with A549 (setting [4]); 1.6 µM in the experiment on A549 (setting [2]); 69 nM and 46 nM on cdk2/cyclin E. Moreover, the IC50 is 300 nM and 500 nM at cdk4/cyclin D1; 2.4 µM with HT-29 (setting [5]); 2.6 µM in the experiment on HT-29 (setting [2]); 2.4 µM in the experiment with MDA-MB-231 (setting [6]); 3 µM in the experiment on MDA-MB-231 (setting [2]); 1.9 µM in the experiment on DMS-114 (setting [7]). The IC50 in the experiment with DMS-114 (setting [2]) is 1.7 µM; in the experiment on MDA-MB-435 (setting [8]), 3.2 µM; with MDA-MB-435 (setting [2]) it was 3.7 µM; with PC-3 (setting [9]), 1.7 µM.

For the molecule `CCCCCCCCNc1nc(N[C@H]2CC[C@H](N)CC2)nc2c1ncn2C1CCCC1` [Example 20, 2-[Trans-(4-aminocyclohexyl)amino]-6-(octylamino)-9-cyclopentylpurine dihydrochloride], the IC50 came out at 1.9 µM in the experiment on Colo-205 (setting [1]); 1.4 µM with Colo-205 (setting [2]); 2.4 µM with DU 145 (setting [3]); 1.9 µM with DU 145 (setting [2]); 1.7 µM in the experiment on A549 (setting [4]); 1 µM in the experiment on A549 (setting [2]). The IC50 against cdk2/cyclin E is 330 nM and 310 nM and 460 nM; at cdk4/cyclin D1 it was 2400 nM; in the experiment on HT-29 (setting [5]), 1.9 µM; in the experiment with HT-29 (setting [2]) it was 1.7 µM; in the experiment on MDA-MB-231 (setting [6]) it was 2.7 µM; with MDA-MB-231 (setting [2]), 1.9 µM. For the same molecule, the IC50 in the experiment on DMS-114 (setting [7]) amounted to 1.1 µM; with DMS-114 (setting [2]), 0.95 µM; with MDA-MB-435 (setting [8]), 2.3 µM; in the experiment with MDA-MB-435 (setting [2]) it was 1.8 µM; in the experiment with PC-3 (setting [9]) it was 1.7 µM; with PC-3 (setting [2]), 1.8 µM.

For `N[C@H]1CC[C@H](Nc2nc(NCCCCc3ccccc3)c3ncn(C4CCCC4)c3n2)CC1` [Example 21, 2-[Trans-(4-aminocyclohexyl)amino]-6-(4-phenylbutylamino)-9-cyclopentylpurine dihydrochloride], the IC50 was 0.51 µM in the experiment with Colo-205 (setting [1]); 0.78 µM with Colo-205 (setting [2]); 0.4 µM in the experiment with DU 145 (setting [3]); 0.7 µM in the experiment on DU 145 (setting [2]); 0.5 µM in the experiment with A549 (setting [4]); 39 nM and 91 nM on cdk2/cyclin E. In addition, the IC50 at cdk4/cyclin D1 was 1000 nM; in the experiment on HT-29 (setting [5]), 0.7 µM; in the experiment with HT-29 (setting [2]) it was 0.8 µM; in the experiment with MDA-MB-231 (setting [6]) it was 0.8 µM; in the experiment on MDA-MB-231 (setting [2]), 0.9 µM; in the experiment with DMS-114 (setting [7]), 0.7 µM. In addition, the IC50 with DMS-114 (setting [2]) came out at 0.6 µM; with MDA-MB-435 (setting [8]), 1.3 µM; with MDA-MB-435 (setting [2]), 1.2 µM; in the experiment on PC-3 (setting [9]) it was 0.6 µM; in the experiment on PC-3 (setting [2]) it was 0.8 µM.

Turning to `N[C@H]1CC[C@H](Nc2nc(NCCCCCO)c3ncn(C4CCCC4)c3n2)CC1` [Example 25, 2-[Trans-(4-aminocyclohexyl)amino]-6-[5-(hydroxy)pentylamino]-9-cyclopentylpurine dihydrochloride], the IC50 in the experiment with Colo-205 (setting [1]) amounted to 2.4 µM; in the experiment with Colo-205 (setting [2]), 2.3 µM; in the experiment with DU 145 (setting [3]) it was 3.9 µM; in the experiment on DU 145 (setting [2]), 4.6 µM; in the experiment with A549 (setting [4]) it was 6.1 µM; in the experiment with A549 (setting [2]), 5.5 µM. The IC50 at cdk2/cyclin E was 21 nM; on cdk4/cyclin D1, 110 nM; in the experiment with HT-29 (setting [5]), 5.6 µM; in the experiment on HT-29 (setting [2]), 6.2 µM; in the experiment on MDA-MB-231 (setting [6]), 3.4 µM; in the experiment with MDA-MB-231 (setting [2]), 5.4 µM. For the same molecule, the IC50 was 6.6 µM with DMS-114 (setting [7]); 4.5 µM with DMS-114 (setting [2]); 6 µM in the experiment on MDA-MB-435 (setting [8]); 1.8 µM in the experiment with PC-3 (setting [9]); 2.3 µM in the experiment on PC-3 (setting [2]).

`N[C@H]1CC[C@H](Nc2nc(NNCCc3ccccc3)c3ncn(C4CCCC4)c3n2)CC1` [Example 35, 2-[Trans-(4-aminocyclohexyl)amino]-6-[2-phenethylhydrazino]-9-cyclopentylpurine dihydrochloride]: the IC50 was 3.4 µM with Colo-205 (setting [1]); 3.2 µM in the experiment with Colo-205 (setting [2]); 3.7 µM in the experiment on DU 145 (setting [3]); 3.2 µM in the experiment on DU 145 (setting [2]); 2.7 µM in the experiment on A549 (setting [4]); 2.5 µM in the experiment with A549 (setting [2]). For the same molecule, the IC50 was 253 nM against cdk2/cyclin E; 2200 nM and 1600 nM at cdk4/cyclin D1; 5.6 µM in the experiment on HT-29 (setting [5]); 5.4 µM in the experiment on HT-29 (setting [2]); 4.2 µM with MDA-MB-231 (setting [6]); 5.6 µM with MDA-MB-231 (setting [2]). Further, the IC50 in the experiment on DMS-114 (setting [7]) stood at 3 µM; with DMS-114 (setting [2]), 2.7 µM; in the experiment on MDA-MB-435 (setting [8]) it was 9.5 µM; in the experiment on MDA-MB-435 (setting [2]), 8 µM; with PC-3 (setting [9]), 3 µM; in the experiment on PC-3 (setting [2]) it was 4.4 µM.

`CCCCNc1nc(N[C@H]2CC[C@H](N)CC2)nc2c1ncn2C(C)C` [Example 37, 2-[Trans-(4-aminocyclohexyl)amino]-6-[(butyl)amino]-9-(2-propyl)purine dihydrochloride]: the IC50 with Colo-205 (setting [2]) was 11 µM; with DU 145 (setting [3]), > 20 µM; in the experiment with DU 145 (setting [2]), 10 µM; with A549 (setting [2]) it was 8.3 µM; on cdk2/cyclin E, 240 nM; at cdk4/cyclin D1, 7000 nM. Also, the IC50 was 19 µM in the experiment on HT-29 (setting [5]); 24 µM with MDA-MB-231 (setting [6]); 9.7 µM in the experiment on DMS-114 (setting [7]); 8 µM with DMS-114 (setting [2]); 19 µM with MDA-MB-435 (setting [8]); 16 µM with MDA-MB-435 (setting [2]). For the same molecule, in the experiment on PC-3 (setting [9]), the IC50 was 11 µM.

With `CCCCCCNc1nc(N[C@H]2CC[C@H](N)CC2)nc2c1ncn2C1CCCC1` [Example 41, 2-[Trans-(4-aminocyclohexyl)amino]-6-(hexylamino)-9-cyclopentylpurine dihydrochloride], the IC50 in the experiment on Colo-205 (setting [1]) is 1.7 µM; in the experiment with DU 145 (setting [3]), 1.1 µM; with A549 (setting [4]) it was 1.1 µM; on cdk2/cyclin E it was 200 nM; on cdk4/cyclin D1 it was 820 nM and 1900 nM; in the experiment on HT-29 (setting [5]), 1.6 µM. The IC50 in the experiment with MDA-MB-231 (setting [6]) is 1.7 µM; with DMS-114 (setting [7]), 0.9 µM; with MDA-MB-435 (setting [8]), 2.6 µM; in the experiment on PC-3 (setting [9]) it was 1.5 µM.
